Biological target: T1, human PDE2A1 (Homo sapiens, UniProt O00408)
T1 construct: GST; purchased BPS Bioscience (San Diego, Calif.) 60020; host or cells: insect cells
Assay: IMAP FP PDE selectivity panel, human PDE2A1
Type: biochemical
Settings: Lab B; read-out: Human PDE2 Ki (nM) Lab B
Procedure: Selectivity for PDE2, as compared to other PDE families, was assessed using the IMAP® technology. Human PDE10A2 enzyme was prepared from cytosolic fractions of transiently transfected HEK cells.
Assays for PDE 1 through 11 were performed in parallel at room temperature in 384-well microtiter plates with an incubation volume of 20.2 μL. Solutions of test compounds were prepared in DMSO and serially diluted with DMSO to yield 30 μL of each of ten solutions differing by 3-fold in concentration, at 32 serial dilutions per plate. […] A Labcyte POD 810 (Labcyte, Sunnyvale, Calif.) was used to dispense 200 nL from each well of the titration plate to make eleven copies of the assay plate for each titration, one copy for each PDE enzyme. A solution of each enzyme (dilution from aliquots, sufficient to produce 20% substrate conversion) and a separate solution of FAM-labeled cAMP or FAM-labeled cGMP from Molecular Devices (Sunnyvale, Calif., product # R7506 or cGMP#R7508), at a final concentration of 50 nM were made in the assay buffer (10 mM Tris HCl, pH 7.2, 10 mM MgCl2, 0.05% NaN3 0.01% Tween-20, and 1 mM DTT). Note that the substrate for PDE2 is 50 nM FAM cAMP containing 1000 nM of cGMP. The enzyme and the substrate were then added to the assay plates in two consecutive additions of 10 μL and then shaken to mix. The reaction was allowed to proceed at room temperature for 60 minutes. A binding solution was then made from the kit components, comprised of 80% Solution A, 20% Solution B and binding reagent at a volume of 1/600 the total binding solution. The enzymatic reaction was stopped by addition of 60 μL of the binding solution to each well of the assay plate. The plates were sealed and shaken for 10 seconds. The plates were incubated at room temperature for one hour, then the parallel and perpendicular fluorescence was measured using a Tecan Genios Pro plate reader (Tecan, Switzerland). […] The intrinsic PDE2 inhibitory activity of a compound which may be used in accordance with the present invention may be determined by these assays.

T1 sequence (O00408 1-920 isoform O00408-2): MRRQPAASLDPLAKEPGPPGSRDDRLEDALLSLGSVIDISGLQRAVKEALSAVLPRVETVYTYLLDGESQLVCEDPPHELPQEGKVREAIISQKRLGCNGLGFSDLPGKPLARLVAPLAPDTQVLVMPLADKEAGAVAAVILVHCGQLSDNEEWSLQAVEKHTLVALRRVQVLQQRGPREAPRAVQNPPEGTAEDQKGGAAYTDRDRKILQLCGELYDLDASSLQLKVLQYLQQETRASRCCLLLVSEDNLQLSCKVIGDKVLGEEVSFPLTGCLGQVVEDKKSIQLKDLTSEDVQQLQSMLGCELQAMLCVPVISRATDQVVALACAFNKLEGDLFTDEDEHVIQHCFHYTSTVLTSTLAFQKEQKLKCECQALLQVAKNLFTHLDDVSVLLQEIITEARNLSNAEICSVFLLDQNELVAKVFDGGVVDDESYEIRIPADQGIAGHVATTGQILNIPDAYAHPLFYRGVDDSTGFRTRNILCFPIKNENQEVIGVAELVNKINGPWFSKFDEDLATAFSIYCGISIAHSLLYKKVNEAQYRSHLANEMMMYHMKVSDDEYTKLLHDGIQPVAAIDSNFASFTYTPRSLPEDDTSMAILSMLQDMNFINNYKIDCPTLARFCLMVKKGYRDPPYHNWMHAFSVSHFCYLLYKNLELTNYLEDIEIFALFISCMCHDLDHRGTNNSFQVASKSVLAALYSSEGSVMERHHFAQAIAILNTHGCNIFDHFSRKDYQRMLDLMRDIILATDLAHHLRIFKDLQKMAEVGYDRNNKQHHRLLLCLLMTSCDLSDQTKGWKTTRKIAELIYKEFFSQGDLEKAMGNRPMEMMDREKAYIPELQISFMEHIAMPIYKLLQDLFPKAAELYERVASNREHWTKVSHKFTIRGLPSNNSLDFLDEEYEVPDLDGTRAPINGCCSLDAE

Row | Compound | Ki
1 | CC(C)(O)C(Nc1cc(C2CC2)nc2ncnn12)c1ccc(S(F)(F)(F)(F)F)cc1 (single isomer, unassigned) [Example 145, (1R or S)-1-[(5- Cyclopropyl [1,2,4]triazolo [1,5-a]pyrimidin-7-yl)amino]-2-methyl-1-[4-(pentafluoro-λ^6-sulfanyl)phenyl]propan-2-ol] | 25 nM
2 | Cc1cc(NC2(c3ccc(C(F)(F)F)c(F)c3)CC2)n2nc(CO)nc2n1 [Example 196, (7-(1-(3-Fluoro-4-(trifluoromethyl)phenyl)cyclopropylamino)-5-methyl-[1,2,4]triazolo [1,5-a]pyrimidin-2-yl)methanol] | 321 nM
3 | OCc1cc(NC2(c3ccc(C(F)(F)F)cc3F)CC2)n2ncnc2c1 [Example 270, [5-({1-[2-Fluoro-4-(trifluoromethyl)phenyl]cyclopropyl}amino)[1,2,4]triazolo[1,5-a]pyridin-7-yl] methanol] | 101 nM
4 | Fc1cc(C2(Nc3cc(C4CC4)nc4ncnn34)CC2)ccc1OC(F)(F)F [Example 71, 5-Cyclopropyl-N-{1-[3-fluoro-4-(trifluoromethoxy)phenyl]cyclo-propyl}[1,2,4]triazolo[1,5-a]pyrimidin-7-amine] | 25 nM
5 | CCc1nc2nc(C)cc(NC3(c4ccc(C(F)(F)F)c(F)c4)CC3)n2n1 [Example 193, 2-Ethyl-N-(1-(3-fluoro-4-(trifluoromethyl)phenyl)cyclopropyl)-5-methyl-[1,2,4]triazolo [1,5-a]pyrimidin-7-amine] | 142 nM
6 | FCc1cc(NC2(c3ccc(C(F)(F)F)c(F)c3)CC2)n2ncnc2n1 [Example 81, 5-(Fluoromethyl)-N-{1-[3-fluoro-4-(trifluoromethyl)phenyl]cyclopropyl}[1,2,4]triazolo[1,5-a]pyrimidin-7-amine] | 31 nM
7 | CC(C)(O)C(Nc1cc(C(F)F)nc2ncnn12)c1ccc(OC(F)F)c(F)c1 (single isomer, unassigned) [Example 190, (1R or S)-[4-(Difluoromethoxy)-3-fluorophenyl]-1-{[5-(difluoromethyl) [1,2,4]triazolo [1,5-a]pyrimidin-7-yl]amino}-2-methylpropan-2-ol] | > 2960 nM
8 | CC[C@@H](Nc1cc(C)nc2ncnn12)c1ccc(SC(F)(F)F)c(F)c1 [Example 18, N-[(1R)-1-{3-Fluoro-4-[(trifluoromethyl)sulfanyl]phenyl}propyl]-5-methyl[1,2,4]triazolo[1,5-a]pyrimidin-7-amine] | 15 nM
9 | Cc1cc(NC(c2ccc(OC(F)(F)F)c(F)c2)C2COC2)n2ncnc2n1 (single isomer, unassigned) [Example 229, (R)- or (S)-N-((3-Fluoro-4-(trifluoromethoxy)phenyl)(oxetan-3-yl)methyl)-5-methyl-[1,2,4]triazolo [1,5-a]pyrimidin-7-amine] | 448 nM
10 | C[C@@H](Nc1cc(CO)cc2ncnn12)c1ccc(C(F)(F)F)cc1 [Example 267, [5-({(1R)-1-[4-(Trifluoromethyl)phenyl]ethyl}amino)[1,2,4]triazolo[1,5-a]pyridin-7-yl] methanol] | 236 nM
11 | CCC(O)(CC)C(Nc1cc(C(F)(F)F)nc2ncnn12)c1ccc(C(F)(F)F)c(F)c1 (single isomer, unassigned) [Example 220, (S)- or (R)-3-((3-Fluoro-4-(trifluoromethyl)phenyl)(5-(trifluoromethyl)-[1,2,4]triazolo [1,5-a]pyrimidin-7-ylamino)methyl) pentan-3-ol] | ~2110 nM
12 | Cc1cc(N[C@H](C)c2ccc(C(F)(F)F)cc2)n2ncnc2n1 [Example 1, 5-Methyl-N-{(1R)-1-[4-(trifluoromethyl)phenyl]ethyl}[1,2,4]triazolo[1,5-a]pyrimidin-7-amine] | 175 nM
13 | Cc1cc(N[C@H](C)c2ccc(SC(F)(F)F)c(F)c2)n2ncnc2n1 [Example 11, N-[(1R)-1-{3-Fluoro-4-[(trifluoromethyl)sulfanyl]phenyl}ethyl]-5-methyl[1,2,4]triazolo [1,5-a]pyrimidin-7-amine] | 18 nM
14 | CC(C)(O)C(Nc1cc(C2CC2)nc2ncnn12)c1ccc(S(F)(F)(F)(F)F)cc1 (single isomer, unassigned) [Example 144, (1S or R)-1-[(5- Cyclopropyl [1,2,4]triazolo [1,5-a]pyrimidin-7-yl)amino]-2-methyl-1-[4-(pentafluoro-λ^6-sulfanyl)phenyl]propan-2-ol] | > 2960 nM
15 | CC(C)(O)[C@H](Nc1cc(C(F)(F)F)nc2ncnn12)c1ccc(S(F)(F)(F)(F)F)cc1 (single isomer, unassigned) [Example 178] | 421 nM

Now from value to compound:

Row | Ki | Compound
16 | 356 nM | Cc1cc(NC(c2ccc(C(F)(F)F)nc2)C(C)(C)O)n2ncnc2n1 (single isomer, unassigned) [Example 226, (S)- or (R)-2-Methyl-1-(5-methyl-[1,2,4]triazolo [1,5-a]pyrimidin-7-ylamino)-1-(6-(trifluoromethyl)pyridin-3-yl) propan-2-ol]
17 | > 2960 nM | Cc1cc(NC(c2ccc(OC(F)F)cc2)C(C)(C)O)n2ncnc2n1 (single isomer, unassigned) [Example 110, (1S or R)-1-[4-(Difluoro-methoxy)phenyl]-2-methyl-1-[(5-methyl[1,2,4]triazolo[1,5-a]pyrimidin-7-yl)amino]propan-2-ol]
18 | > 2960 nM | CC(C)(O)C(Nc1cc(C(F)(F)F)nc2ncnn12)c1ccc(C(F)(F)F)cc1F (single isomer, unassigned) [Example 173, (1S or R)-1-[2-Fluoro-4-(trifluoromethyl)phenyl]-2-methyl-1-{[5-(trifluoromethyl) [1,2,4]triazolo [1,5-a]pyrimidin-7-yl]amino} propan-2-ol]
19 | 81 nM | CC(C)(O)C(Nc1cc(C(F)(F)F)nc2ncnn12)c1ccc(C(F)(F)F)cc1Cl (single isomer, unassigned) [Example 160, (1R or S)-1-[2-chloro-4-(trifluoromethyl)phenyl]-2-methyl-1-{[5-(trifluoromethyl)[1,2,4]triazolo[1,5-a]pyrimidin-7-yl]amino}propan-2-ol]
20 | > 2960 nM | Cc1cc(NC(c2ccc(OC(F)(F)F)cc2F)C(C)(C)O)n2nc(C)nc2n1 (single isomer, unassigned) [Example 134, (1S or R)-1-[(2,5-Dimethyl[1,2,4]triazolo[1,5-a]pyrimidin-7-yl)amino]-1-[2-fluoro-4-(tri-fluoromethoxy)phenyl]-2-methylpropan-2-ol]
21 | 27 nM | Cc1cc(N[C@H](c2ccc(OC(F)(F)F)cc2Cl)C(C)(C)O)n2ncnc2n1 [Example 101, (1R)-1-[2-Chloro-4-(trifluoromethoxy)phenyl]-2-methyl-1-[(5-methyl[1,2,4]triazolo[1,5-a]pyrimidin-7-yl)amino]propan-2-ol]
22 | > 2960 nM | Cc1cc(NC(c2ccc3ccccc3c2)C(C)(C)O)n2ncnc2n1 (single isomer, unassigned) [Example 122, (1S or R)-2-Methyl-1-[(5-methyl [1,2,4]triazolo [1,5-a]pyrimidin-7-yl)amino]-1-naphthalen-2-yl propan-2-ol]
23 | 2290 nM | Cc1cc(N[C@@H](c2ccc(F)c(OC(F)(F)F)c2)C(C)(C)O)n2ncnc2n1 [Example 130, (1S)-1-[4-Fluoro-3-(trifluoro-methoxy)phenyl]-2-methyl-1-[(5-methyl[1,2,4]triazolo[1,5-a]pyrimidin-7-yl)amino]propan-2-ol]
24 | > 2960 nM | Cc1cc(N[C@@H](CC(C)(C)O)c2ccc(C(F)(F)F)c(F)c2)n2ncnc2n1 [Example 153, (4S)-4-[3-Fluoro-4-(trifluoromethyl)phenyl]-2-methyl-4-[(5-methyl[1,2,4]triazolo[1,5-a]pyrimidin-7-yl)amino]butan-2-ol]
25 | > 2960 nM | CC(C)c1cc(NC(c2ccc(OC(F)(F)F)cc2F)C(C)(C)O)n2ncnc2n1 (single isomer, unassigned) [Example 136, (1S or R)-1-[2-Fluoro-4-(trifluoro-methoxy)phenyl]-2-methyl-1-{[5-(1-methylethyl) [1,2,4]triazolo [1,5-a]pyrimidin-7-yl]amino} propan-2-ol]
26 | ~2780 nM | Cc1cc(NC(c2ccc(C(F)(F)F)cc2Cl)C(C)(C)O)n2ncnc2n1 (single isomer, unassigned) [Example 104, (1S or R)-1-[2-Chloro-4-(trifluoromethyl)phenyl]-2-methyl-1-[(5-methyl[1,2,4]triazolo[1,5-a]pyrimidin-7-yl)amino]propan-2-ol]
27 | 766 nM | Cc1cc(N[C@H](CC(C)(C)O)c2ccc(C(F)(F)F)c(F)c2)n2ncnc2n1 [Example 152, (4R)-4-[3-Fluoro-4-(trifluoromethyl)phenyl]-2-methyl-4-[(5-methyl[1,2,4]triazolo[1,5-a]pyrimidin-7-yl)amino]butan-2-ol]

Reference: patent publication US10357481B2 (MERCK SHARP & DOHME CORP., priority 2015, dated 2019)
